Assay results taken from US10676471B2, “Cycloalkyl-linked diheterocycle derivatives” (Pfizer Inc., priority 2014, dated 2020).

Test system: BT20 Cell
Assay: Cancer Cell Lysate Total L-Glutamate Assay
Assay type: cell-based
Conditions: Homo sapiens, BT-20, 2 h, total L-glutamate in cell lysate, BT20 cells, 2 hour incubation with test compound
Procedure: Cancer Cell Lysate Total L-Glutamate Assay
Cancer cell lines (BT20, HCT116, SKOV3, HCC70, SUM149, MDA-MB-231, etc.) were plated in 96 well plates and were used for the total L-glutamate assay when the monolayer was ca. 80% confluent. The media was changed and fresh media containing L-glutamine was added to the 96 well plates, just before incubation of the cells with test compound. The test compound was diluted in 100% DMSO using a two-fold or three-fold serial dilution. Small volumes of the dilutions of test compound were added to the 96 well plates so the final DMSO concentration was 0.5% v/v in the cell culture medium. The cells were incubated at 37° C., 5% CO2, and 95% air for 2 hours. Following the 2 hour incubation, the cells were washed with water 2 times. After the last water wash, 100 μL of 50 mM Tris-HCl pH 7.4 and 0.01% Tween-20 was added to each well and the plate was frozen at −80° C. The 96 well plate was frozen and thawed a total of 3 times and then sonicated for 5 min at 4° C. in a bath sonicator. Following sonication, the 96 well plate was centrifuged for 5 min at 1000 rpm and 10 μL of the supernatant was transferred to a 384 well assay plate.
Total L-glutamate (L-glutamic acid) in the cell lysis supernatant was detected using glutamate oxidase, horseradish peroxidase and Amplex Red reagent (10-acetyl-3,7-dihydroxy phenoxazine, Invitrogen # A22177). In this assay, L-glutamate was oxidized by glutamate oxidase to produce alpha-ketoglutarate (2-oxopentane dioic acid), NH3 and H202. The H2O2 (hydrogen peroxide) was used by horseradish peroxidase (HRP) to oxidize the Amplex Red Reagent to resorufin which is a fluorescent molecule. When resorufin is excited with light with a wavelength 530-560 nm, it emits light at approximately 585 nm. For detection of total L-glutamate in 10 μL of lysate, 15 μL of an enzyme mixture was added to each well of the 384 well assay plate. The enzyme mixture consisted of 50 mM Tris-HCl pH 7.4, 0.01% Tween-20, 50 μM Amplex Red reagent (final concentration), 0.04 U/mL L-glutamate oxidase (final concentration), and 0.125 U/mL HRP (final concentration). The 384 well assay plate was incubated at room temperature for 5 min and then the fluorescence intensity of each well was measured at 585 nm using a 530-560 nm excitation wavelength in a plate based fluorimeter such as an LJL Analyst or a Tecan Infinite plate reader. Standard curves were constructed for this assay using dilutions of a L-glutamate standard. IC50 were calculated by plotting the relative fluorescent units vs log of the inhibitor concentration and fitting the data to the four parameter logistic equation.
Reference: Chapman J. and Zhou M. (1999) Microplate-based fluorometric methods for the enzymatic determination of I-glutamate: application in measuring I-glutamate in food samples. Analytica Chim Acta 402:47-52.

Row | Structure (SMILES) | IC50 [nM]
1 | CC(=O)Nc1nnc([C@@H]2CC[C@H](Cc3nnc(NC(=O)Cc4ccccn4)s3)C2)s1 (racemic) [Example 151, (rac)-N-[5-({(cis)-3-[5-(acetylamino)-1,3,4-thiadiazol-2-yl]cyclopentyl}methyl)-1,3,4-thiadiazol-2-yl]-2-(pyridin-2-yl)acetamide] | 4.6
2 | Cn1cnc(CC(=O)Nc2nnc([C@H]3CC[C@@H](Cc4ccc(NC(=O)Cc5ccccn5)nn4)C3)s2)c1 (relative stereo) [Example 128, 2-(1-methyl-1H-imidazol-4-yl)-N-{5-[(cis)-3-({6-[(pyridin-2-ylacetyl)amino]pyridazin-3-yl}methyl)cyclopentyl]-1,3,4-thiadiazol-2-yl}acetamide] | 2
3 | O=C(Cc1ccccn1)Nc1nnc(C[C@H]2CC[C@@H](c3nnc(NC(=O)Cc4ccccn4)s3)C2)s1 (single isomer, unassigned) [Example 4] | 21.6
4 | CC(=O)Nc1nnc(C[C@H]2CC[C@@H](c3nnc(NC(C)=O)s3)C2)s1 (single isomer, unassigned) [Example 7] | 3360
5 | O=C(Cc1ccccc1)Nc1nnc(C[C@@H]2CC[C@H](c3nnc(NC(=O)Cc4ccccc4)s3)C2)s1 (single isomer, unassigned) [Example 8] | 1.4
6 | O=C(Cc1ccccc1)Nc1nnc(C[C@H]2CC[C@@H](c3nnc(NC(=O)Cc4ccccc4)s3)C2)s1 (single isomer, unassigned) [Example 10] | 33.3
7 | CC(=O)Nc1nnc(C2CC[C@H](Cc3nnc(NC(=O)c4ccccc4)s3)C2)s1 (single isomer, unassigned) [Example 12, N-[5-({(cis)-3-[5-(acetylamino)-1,3,4-thiadiazol-2-yl]cyclopentyl}methyl)-1,3,4-thiadiazol-2-yl]benzamide] | > 50000
8 | CC(=O)Nc1nnc(C2CC[C@@H](Cc3nnc(NC(=O)c4ccccc4)s3)C2)s1 (single isomer, unassigned) [Example 13, N-[5-({(cis)-3-[5-(acetylamino)-1,3,4-thiadiazol-2-yl]cyclopentyl}methyl)-1,3,4-thiadiazol-2-yl]benzamide] | 23.8
9 | CC(=O)Nc1nnc(C2CC[C@H](Cc3nnc(NC(=O)Cc4ccccc4)s3)C2)s1 (single isomer, unassigned) [Example 16, N-[5-({(cis)-3-[5-(acetylamino)-1,3,4-thiadiazol-2-yl]cyclopentyl}methyl)-1,3,4-thiadiazol-2-yl]-2-phenylacetamide] | 399
10 | CC(=O)Nc1nnc(C[C@@H]2CC[C@H](c3nnc(NC(=O)Cc4ccncn4)s3)C2)s1 (single isomer, unassigned) [Example 20] | 137
11 | CC(=O)Nc1nnc(C[C@H]2CCC(c3nnc(NC(=O)Cc4ccncn4)s3)C2)s1 (single isomer, unassigned) [Example 21, N-{5-[(cis)-3-{[5-(acetylamino)-1,3,4-thiadiazol-2-yl]methyl}cyclopentyl]-1,3,4-thiadiazol-2-yl}-2-(pyrimidin-4-yl)acetamide] | > 6650
12 | O=C(Cc1ccccn1)Nc1nnc(C[C@H]2C[C@@H](c3nnc(NC(=O)Cc4ccccn4)s3)C2)s1 (single isomer, unassigned) [Example 22, 2-(pyridin-2-yl)-N-{5-[(cis-3-{5-[(pyridin-2-ylacetyl)amino]-1,3,4-thiadiazol-2-yl}cyclobutyl)methyl]-1,3,4-thiadiazol-2-yl}acetamide] | 1.4
13 | CC(C)(C)C(=O)Nc1nnc(C[C@@H]2CC[C@H](c3nnc(NC(=O)C(C)(C)C)s3)C2)s1 (single isomer, unassigned) [Example 29, N-(5-{[(cis)-3-{5-[(2,2-dimethylpropanoyl)amino]-1,3,4-thiadiazol-2-yl}cyclopentyl]methyl}-1,3,4-thiadiazol-2-yl)-2,2-dimethylpropanamide] | 167
14 | C[C@H](C(=O)Nc1nnc([C@@H]2CC[C@H](Cc3nnc(NC(=O)[C@H](C)c4cccnc4)s3)C2)s1)c1cccnc1 (single isomer, unassigned) [Example 31, 2-(pyridin-3-yl)-N-(5-{[(cis)-3-(5-{[2-(pyridin-3-yl)propanoyl]amino}-1,3,4-thiadiazol-2-yl)cyclopentyl]methyl}-1,3,4-thiadiazol-2-yl)propanamide] | 639
15 | C[C@H](C(=O)Nc1nnc(C[C@H]2CC[C@@H](c3nnc(NC(=O)[C@@H](C)c4cccnc4)s3)C2)s1)c1cccnc1 (single isomer, unassigned) [Example 32, 2-(pyridin-3-yl)-N-(5-{[(cis)-3-(5-{[2-(pyridin-3-yl)propanoyl]amino}-1,3,4-thiadiazol-2-yl)cyclopentyl]methyl}-1,3,4-thiadiazol-2-yl)propanamide] | 201
16 | C[C@H](C(=O)Nc1nnc(C[C@@H]2CC[C@H](c3nnc(NC(=O)[C@@H](C)c4cccnc4)s3)C2)s1)c1cccnc1 (single isomer, unassigned) [Example 33, 2-(pyridin-3-yl)-N-(5-{[(cis)-3-(5-{[2-(pyridin-3-yl)propanoyl]amino}-1,3,4-thiadiazol-2-yl)cyclopentyl]methyl}-1,3,4-thiadiazol-2-yl)propanamide] | 7
17 | C[C@H](C(=O)Nc1nnc(C[C@H]2CC[C@@H](c3nnc(NC(=O)[C@H](C)c4cccnc4)s3)C2)s1)c1cccnc1 (single isomer, unassigned) [Example 34, 2-(pyridin-3-yl)-N-(5-{[(cis)-3-(5-{[2-(pyridin-3-yl)propanoyl]amino}-1,3,4-thiadiazol-2-yl)cyclopentyl]methyl}-1,3,4-thiadiazol-2-yl)propanamide] | 942

Further compounds by falling IC50, results first:

Row | IC50 [nM] | Structure (SMILES)
18 | 3020 | CC(C)(C)C(=O)Nc1nnc(C[C@H]2CC[C@@H](c3nnc(NC(=O)C(C)(C)C)s3)C2)s1 (single isomer, unassigned) [Example 28, N-(5-{[(cis)-3-{5-[(2,2-dimethylpropanoyl)amino]-1,3,4-thiadiazol-2-yl}cyclopentyl]methyl}-1,3,4-thiadiazol-2-yl)-2,2-dimethylpropanamide]
19 | 1470 | CC(=O)Nc1nnc(C2CC[C@H](Cc3nnc(NC(=O)Cc4ccccn4)s3)C2)s1 (single isomer, unassigned) [Example 19, N-[5-({(cis)-3-[5-(acetylamino)-1,3,4-thiadiazol-2-yl]cyclopentyl}methyl)-1,3,4-thiadiazol-2-yl]-2-(pyridin-2-yl)acetamide]
20 | 104 | CC(=O)Nc1nnc(C[C@@H]2CC[C@H](c3nnc(NC(C)=O)s3)C2)s1 (single isomer, unassigned) [Example 5]
21 | 12.2 | CC(=O)Nc1nnc([C@H]2CC[C@@H](Cc3nnc(NC(=O)Cc4ccccn4)s3)C2)s1 (single isomer, unassigned) [Example 17, N-[5-({(cis)-3-[5-(acetylamino)-1,3,4-thiadiazol-2-yl]cyclopentyl}methyl)-1,3,4-thiadiazol-2-yl]-2-(pyridin-2-yl)acetamide]
22 | 9.9 | O=C(Cc1ccccn1)Nc1nnc(C[C@H]2C[C@H](c3nnc(NC(=O)Cc4ccccn4)s3)C2)s1 (single isomer, unassigned) [Example 23, 2-(pyridin-2-yl)-N-{5-[(trans-3-{5-[(pyridin-2-ylacetyl)amino]-1,3,4-thiadiazol-2-yl}cyclobutyl)methyl]-1,3,4-thiadiazol-2-yl}acetamide]
23 | 3.1 | CC(=O)Nc1nnc([C@H]2CC[C@@H](Cc3nnc(NC(=O)Cc4ccccc4)s3)C2)s1 (single isomer, unassigned) [Example 14]
24 | 2.8 | O=C(Cc1ccccn1)Nc1nnc(C[C@H]2CC[C@@H](c3nnc(NC(=O)Cc4ccccn4)s3)C2)s1 (racemic) [Example 152, (rac)-2-(pyridin-2-yl)-N-(5-{[(cis)-3-{5-[(pyridin-2-ylacetyl)amino]-1,3,4-thiadiazol-2-yl}cyclopentyl]methyl}-1,3,4-thiadiazol-2-yl)acetamide]
25 | 1.5 | Cn1cnc(C(=O)Nc2nnc(C[C@H]3CC[C@@H](c4nnc(NC(=O)Cc5ccccn5)s4)C3)s2)c1 (racemic) [Example 150, (rac)-1-methyl-N-(5-{[(cis)-3-{5-[(pyridin-2-ylacetyl)amino]-1,3,4-thiadiazol-2-yl}cyclopentyl]methyl}-1,3,4-thiadiazol-2-yl)-1H-imidazole-4-carboxamide]
26 | 1 | O=C(Cc1ccccn1)Nc1nnc(C[C@@H]2CC[C@H](c3nnc(NC(=O)Cc4ccccn4)s3)C2)s1 (single isomer, unassigned) [Example 2]
